Six compounds from ChEMBL document CHEMBL5608226, “Innovative Ketamine Formulations: Enhancing Therapeutic Efficacy and Safety” (ACS Med Chem Lett, 2024) can be followed below.

Series [1] can be described thus: Ratio of AUC (0 to 4 hr) for test compound to AUC (0 to 4 hr) for Ketamine HCL in Sprague-Dawley rat at 4.64 mg/kg,po administration measured upto 4 hrs. It is filed as ADME, organism-based. The following applies: in vivo.
Series [2] can be described thus: Ratio of Cmax for test compound to Cmax for Ketamine HCL in Sprague-Dawley rat at 4.64 mg/kg,po administration measured upto 4 hrs. It is filed as ADME, organism-based. The conditions noted are these: in vivo.

In the case of `CN(C(=O)OC[n+]1cccc(C(=O)N[C@@H](CCCCN)C(=O)O)c1)C1(c2ccccc2Cl)CCCCC1=O.Cl.[Cl-]` (some centres not stated), the Ratio in series [1] turned out to be 75.4%; in series [2], 71.2%.
As to `CN(CC(=O)O)C(=O)c1ccc[n+](COC(=O)N(C)C2(c3ccccc3Cl)CCCCC2=O)c1.[Cl-]` (configuration not stated), the Ratio stood at 93.9% in series [1] and 112% in series [2].
In the same order, the values of `CC[C@H](C)[C@H](NC(=O)c1ccc[n+](COC(=O)N(C)C2(c3ccccc3Cl)CCCCC2=O)c1)C(=O)O.[Cl-]` (some centres not stated) are 223% and 246%.
The like results for `CN(C(=O)OC[n+]1cccc(C(=O)N2CCC[C@H]2C(=O)O)c1)C1(c2ccccc2Cl)CCCCC1=O.[Cl-]` (some centres not stated) were, in that order, 166% and 178%.
As to `CC(C)[C@H](NC(=O)c1ccc[n+](COC(=O)N(C)C2(c3ccccc3Cl)CCCCC2=O)c1)C(=O)O.[Cl-]` (some centres not stated), the Ratio in series [1] is given as 160%; in series [2], 223%.
For `C[C@H](NC(=O)c1ccc[n+](COC(=O)N(C)C2(c3ccccc3Cl)CCCCC2=O)c1)C(=O)O.[Cl-]` (some centres not stated), the Ratio in series [1] is given as 63.2%; in series [2], 73.7%.
